# Laboratory results published in patent publication US11827629B2, “CDGSH iron sulfur domain 2 activators and use thereof” (National Health Research Institutes, priority 2021, dated 2023).
# Experiments:
# Cisd2 hKO male mice = assay: In vivo fructose-induced NASH model in Cisd2 hKO mice (histopathology, GTT, ITT); details: 0.015 wt % in diet for 5 months
# Source text: Compound 28 was used to alleviate nonalcoholic steatohepatitis (NASH) in Cisd2 hKO male mice described above.
# Cisd2 hKO were bred for two generations. […] They were fed 30% (w/v) fructose (Alfa Aesar A17718) in water to establish a fructose-induced NASH model. Groups of mice at 2 months old were provided with a diet (AIN93G, TestDiet) containing a vehicle (0.14 wt % of DMF and 0.15 wt % of Cremophor® EL) or Compound 28 (0.015 wt %) for 5 months. The food and drinking water were provided ad libitum.
# Histopathology was used to evaluate the efficacy of Compound 28 in alleviating NASH. Liver tissues were processed and stained as described in Example 53 above.
# An oral glucose tolerance test (GTT) and an insulin tolerance test (ITT) were performed to study beneficial effects of Compound 28 in the fructose-induced NASH model. In the oral glucose tolerance test, mice were fasted for 14 hours (7 p.m. to 9 a.m.) and then were orally administrated with glucose water (1.5 mg/g body weight) using a feeding needle. Blood samples were collected from tail vein before (0 min) and after glucose treatment at predetermined time points. Blood glucose levels were measured using OneTouch® Ultra glucose test strips and SureStep® Meter (LifeScan). In the insulin tolerance test, mice were fasted for 2 hours (9 a.m. to 11 a.m.) and then intraperitoneally injected with insulin (0.75 U/kg body weight) (Actrapid® human regular insulin, Novo Nordisk). Blood samples were collected and monitored at predetermined time points.
# Male C57BL/6 mice = assay: In vivo doxorubicin-induced cachexia and hepatotoxicity; details: 1 mg/kg i.p. twice a day for 2 days, doxorubicin 25 mg/kg i.p.
# Protocol: Compound 28 was used in rescuing doxorubicin-induced cachexia and hepatotoxicity in the following in vivo study.
# Male C57BL/6 mice between 7 and 8 months were pretreated with Compound 28 (1 mg/kg) or a vehicle (1.5 wt % of DMF and 3 wt % of Cremophor® EL in PBS) via intraperitoneal injection (i.p.) twice a day for 2 days. At day 0, 1 hour after the treatment with compound 28, doxorubicin (25 mg/kg, i.p.) or another vehicle (10% DMSO in normal saline) were injected into mice.
# Different tissues including livers, cardiac muscle (left ventricle), skeletal muscle (gastrocnemius), brown adipose tissue, and white adipose tissue were weighted and collected after mice were sacrificed. The tissues were fixed with 10% formalin at 4° C. overnight, processed in a tissue processor, and then embedded in paraffin. H&E of tissue sections (3-4 m) were carried out by a standard protocol as described above.
structure (smiles),measurement,setting,value
"O=C(CS(=O)(=O)c1nccs1)N1Cc2ccccc2C1 [Compound 28, 1-(1,3-dihydro-2H-isoindol-2-yl)-2-(1,3-thiazol-2-ylsulfonyl)ethanone]",effect on fructose-induced NASH,"Cisd2 hKO male mice; Cisd2 hKO male mice, 30% fructose in water, liver histopathology",ameliorate fructose-induced NASH
same,toxicity,Cisd2 hKO male mice; fructose-induced NASH model,without obvious toxicity
same,effect on fructose-induced insulin resistance,Cisd2 hKO male mice; insulin tolerance test,alleviate fructose-induced glucose intolerance and insulin resistance
same,effect on fructose-induced glucose intolerance,Cisd2 hKO male mice; oral glucose tolerance test,alleviate fructose-induced glucose intolerance
same,effect on doxorubicin-induced hepatotoxicity,Male C57BL/6 mice,alleviated doxorubicin-induced hepatotoxicity
same,effect on doxorubicin-induced cachexia,Male C57BL/6 mice; tissue weights,alleviated doxorubicin-induced hepatotoxicity and cachexia
